Assay results from US20240287082A1, “NEW BENZODIAZEPINE DERIVATIVES AS GABA A GAMMA1 PAM” (Hoffmann-La Roche Inc., priority 2021, published 2024).
Like-named read-outs stand apart in the source and are kept apart here.

Columns and labels:
[1] = molecular target: human GABAA α1β2γ1 receptor (Homo sapiens (Human), UniProt P14867+Q8N1C3); assay: Radioligand binding assay, competition for [3H]RO7239181, γ1-containing GABAA subtype α1β2γ1; conditions: membranes of HEK293F cells, [3H]RO7239181 20-30 nM, mean of two determinations
Experimental: (§1) The affinity of compounds at GABAA γ1 subunit-containing receptors was measured by competition for [^3H]RO7239181 (67.3 Ci/mmol; Roche) binding to membranes from HEK293F cells (ThermoFisher R^79007) expressing human (transiently transfected) receptors of composition α5β2γ1, α2β2γ1, α1β2γ1.
(§2) Harvested pellets from HEK293F cells expressing the different GABAA receptor subtypes were resuspended in Mannitol Buffer pH 7.2-7.4 (Mannitol 0.29M, Triethylamine 10 mM, Acetic acid 10 mM, EDTA 1 mM plus protease inhibitors (20 tablets Complete, Roche Diagnostics Cat. No. 05 056 489 001 per liter)), washed two times and then resuspended at 1:10 to 1:15 dilution in the same buffer. Cell disruption was performed by stirring the suspension in a Parr vessel #4637 at 435 psi for 15 minutes, and then the suspensions were centrifuged at 1000×g for 15 minutes at 4° C. (Beckman Avanti J-HC: rotor JS-4.2). The supernatant (S1) was transferred in a 21 Schott flask and the pellet (P1) was resuspended with Mannitol Buffer up to 175 ml. The resuspended pellet was transferred into a 250 ml Corning centrifugal beaker and centrifuged at 1500×g for 10 minutes at 4° C. (Beckman Avanti J-HC: rotor JS-4.2). The supernatant (S1) was then transferred in the 21 Schott flask and the pellet was discarded. The supernatants (S1) were centrifuged in 500 ml Beckman polypropylene centrifugal beaker at 15 000×g for 30 minutes at 4° C. (Beckman Avanti J-20 XP: rotor JLA-10.500). The pellet (P2) was resuspended with Mannitol Buffer 1:1 and frozen at −80° C. The supernatant (S2) was centrifuged in 100 ml Beckman polypropylene centrifugal tubes at 48000×g for 50 minutes at 4° C. (Beckman Avanti J-20 XP: rotor JA-18). The supernatant (S3) was discarded and the pellet (P3) was resuspended with 1:1 Mannitol Buffer. The P2 and P3 protein concentration was determined with the BIORAD Standard assay method with bovine serum albumin as standard and measured on the NANO-Drop 1000. The membrane suspension was aliquots (500 μl per tube) and stored at −80° C. until required.
(§3) Membrane homogenates were resuspended and polytronised (Polytron PT1200E Kinematica AG) in Potassium Phosphate 10 mM, KCl 100 mM binding buffer at pH 7.4 to a final assay concentration determined with a previous experiment.
(§4) Assays were incubated to equilibrium for 1 hour at 4° C. and then, membranes were filtered onto unifilter (96-well white microplate with bonded GF/C filters preincubated 20-50 minutes in 0.3% Polyethylenimine) with a Filtermate 196 harvester (Packard BioScience) and washed 4 times with cold Potassium Phosphate 10 mM pH 7.4, KCl 100 mM binding buffer. After anhydrousing, filter-retained radioactivity was detected by liquid scintillation counting. Ki values were calculated using Excel-Fit (Microsoft) and are the means of two determinations.

[2] = molecular target: human GABAA α5β2γ1 receptor (Homo sapiens (Human), UniProt P31644+Q8N1C3); assay: Radioligand binding assay, competition for [3H]RO7239181, γ1-containing GABAA subtype α5β2γ1
Experimental: as §1, with “α1β2γ1. For better protein expression of the α2 subunit-containing receptors, the 28 amino acid long signal peptide (Met1 to Ala28)of the human GABAA α2 subunit was substituted by the 31 amino acid long signal peptide (Met1 to Ser31) of human GABAA α5 subunit.” for “α1β2γ1.”
as §2, §3
as §4, with “Radioligand binding assays were carried out in a volume of 200 μL (96-well plates) which contained 100 μL of cell membranes, [3H]RO7239181 at a concentration of 1.5 nM (α5β2γ1) or 20-30 nM (α1β2γ1, α2β2γ1) and the test compound in the range of [0.3-1000]×10^−9 M. Nonspecific binding was defined by 10×10^−6 (α5β2γ1) and 30×10^−6 M RO7239181 and typically represented less than 5% (α5β2γ1) and less than 20% (α1β2γ1, α2β2γ1) of the total binding. Assays” for “Assays”

[3] = molecular target: human GABAA α1β3γ2 receptor (Homo sapiens (Human), UniProt P14867+P18507); assay: Radioligand binding assay, competition for [3H]Flumazenil, γ2-containing GABAA subtype α1β3γ2
Experimental: The affinity of compounds at GABAA γ2 subunit-containing receptors was measured by competition for [^3H]Flumazenil (81.1 Ci/mmol; Roche) binding to HEK293F cells expressing human (transiently transfected) receptors of composition α1β3γ2.
Harvested pellets from HEK293F cells expressing the different GABAA γ2 receptor subtypes were resuspended in Mannitol Buffer pH 7.2-7.4 and processed as described above for the cells expressing the GABAA γ1 subunit-containing receptors.
Assays were incubated to equilibrium for 1 hour at 4° C. and harvested onto GF/C uni-filters (Packard) by filtration using a Packard harvester and washing with ice-cold wash buffer (50 mM Tris; pH 7.5). After anhydrousing, filter-retained radioactivity was detected by liquid scintillation counting. Ki values were calculated using Excel-Fit (Microsoft) and are the means of two determinations.

[4] = molecular target: human GABAA α2β2γ1 receptor (Homo sapiens (Human), UniProt P47869+Q8N1C3); assay: Radioligand binding assay, competition for [3H]RO7239181, γ1-containing GABAA subtype α2β2γ1; conditions: for γ2/γ1 Selectivity Ratio: Ki α1β3γ2 (nM)/Ki α2β2γ1 (nM); for LogSel: Log[Ki α1β3γ2 (nM)/Ki α2β2γ1 (nM)]
Experimental: as §1, §2, §3, §4

[5] = molecular target: h-GABA-A α2β2γ1 (Homo sapiens (Human), UniProt P47869+Q8N1C3); assay: Two-electrode voltage clamp electrophysiology in Xenopus oocytes expressing GABAA receptors, modulation of GABA EC20 current; assay type: cell-based; conditions: for Efficacy (GABA) %: % modulation of GABA EC20 = 100*(Fold increase−1), compound at 30-fold Ki α2β2γ1; for Fold increase h-GABA-A α2β2γ1 oocyte @ 30-fold Ki: Xenopus oocytes, GABA EC20, test compound at approx. 30-fold its Ki α2β2γ1
Experimental: Xenopus laevis oocytes at maturation stages V-VI were used for the expression of cloned mRNA encoding GABAA receptor subunits. Oocytes ready for RNA micro-injection were bought from Ecocyte, Castrop-Rauxel, Germany and stored in modified Barth's medium (composition in mM: NaCl 88, KCl 1, NaHCO3 2.4, HEPES 10, MgSO4 0.82, CaNO3 0.33, CaCl2 0.33, pH=7.5) at 20° C. until the experiment.
Oocytes were plated in 96-well plates for microinjection using the Roboinject automated instrument (MultiChannelSystems, Reutlingen, Germany). Approximately 50 nL of an aqueous solution containing the RNA transcripts for the subunits of the desired GABAA receptor subtype was injected into each oocyte. […] Oocytes were kept in modified Barth's medium (composition in mM: NaCl 88, KCl 1, NaHCO3 […], HEPES 10, MgSO4 0.82, CaNO3 0.33, CaCl2 0.33, pH=7.5) at 20° C. until the experiment.
Electrophysiological experiments were performed using the Roboocyte instrument (MultiChannelSystems, Reutlingen, Germany) on days 3 to 5 after the micro-injection of mRNA. During the experiment the oocytes were constantly superfused by a solution containing (in mM) NaCl 90, KCl 1, HEPES 5, MgCl2 1, CaCl2 1 (pH 7.4). Oocytes were impaled by two glass microelectrodes (resistance: 0.5-0.8 MΩ) which were filled with a solution containing KCl 1M+K-acetate 1.5 M and voltage-clamped to −80 mV. The recordings were performed at room temperature using the Roboocyte two-electrode voltage clamp system (Multichannelsystem). After an initial equilibration period of 1.5 min GABA was added for 1.5 min at a concentration evoking approximately 20% of a maximal current response (EC20). After another rest interval of 2.5 min GABA was again added evoking a response of similar amplitude and shape. […] Current traces were recorded at a digitization rate of 10 Hz during and shortly before and after the GABA application.
Each compound and concentration was tested on at least 3 oocytes. Different oocytes were used for different compound concentrations.
For the analysis, the digitized current traces of the first and second GABA response were superimposed and, if necessary, rescaled to equal maximal amplitudes. The ratio between the two responses during the time interval of test compound application was calculated point by point. The extremum of the resulting “ratio trace” was taken as the efficacy (“Fold increase”) of the compound expressed as “% modulation of GABA EC20” (100*(Fold increase−1)).

[6] = read-out: Ki h-GABAA α2β2γ1, Table 2, membranes of HEK293F cells, [3H]RO7239181

Structure (SMILES)	Ki [1]	Ki ([2]; membranes of HEK293F cells, [3H]RO7239181 1.5 nM, mean of two determinations, read-out: Ki h-GABAA α5β2γ1)	Ki ([3]; HEK293F cell membranes, [3H]Flumazenil 1 nM, mean of two determinations, read-out: Ki h-GABAA α1β3γ2)	γ2/γ1 Selectivity Ratio [4]	LogSel [4]	Ki ([4]; Table 2, membranes of HEK293F cells, [3H]RO7239181, read-out: Ki h-GABAA α2β2γ1)	Ki ([4]; membranes of HEK293F cells, [3H]RO7239181 20-30 nM, mean of two determinations, read-out: Ki h-GABAA α2β2γ1)	Efficacy (GABA) % [5]	Fold increase h-GABA-A α2β2γ1 oocyte @ 30-fold Ki [5]	Ki [2]	Ki [3]	Ki [4]	Ki [4, 6]
C[C@@H]1N=C(c2c(F)cccc2F)c2c(ccc(C(F)(F)F)c2Cl)-n2cc(CO)c(=O)nc21 [Example 29, (5S)-8-chloro-7-(2,6-difluorophenyl)-2-(hydroxymethyl)-5-methyl-9-(trifluoromethyl)-5H-pyrimido[1,2-a][1,4]benzodiazepin-3-one]	113 nM	11.2 nM	13100 nM	292.6	2.47	44.6 nM	44.6 nM	–	–	–	–	–	–
O=c1ccn2c(n1)CN=C(c1c(F)cccc1F)c1c-2ccc(Br)c1Cl [Example 12, 9-bromo-8-chloro-7-(2,6-difluorophenyl)-5H-pyrimido[1,2-a][1,4]benzodiazepin-3-one]	–	–	–	70.5	1.85	–	–	65%	1.65	0.7 nM	322 nM	4.6 nM	4.6 nM
O=c1ccn2c(n1)CN=C(c1c(F)cccc1F)c1c-2ccc(Cl)c1Br [Example 17, 8-bromo-9-chloro-7-(2,6-difluorophenyl)-5H-pyrimido[1,2-a][1,4]benzodiazepin-3-one]	–	–	–	36.9	1.57	–	–	79%	1.79	1 nM	507 nM	13.7 nM	13.7 nM
Cc1cn2c(nc1=O)[C@H](C)N=C(c1c(F)cccc1F)c1c-2ccc(Cl)c1Cl [Example 7, (5S)-8,9-dichloro-7-(2,6-difluorophenyl)-2,5-dimethyl-5H-pyrimido[1,2-a][1,4]benzodiazepin-3-one]	–	–	–	61.2	1.79	–	–	53%	1.53	1.4 nM	695 nM	11.3 nM	11.3 nM
CCc1cn2c(nc1=O)[C@H](C)N=C(c1c(F)cccc1F)c1c-2ccc(Cl)c1Cl [Example 14, (5S)-8,9-dichloro-7-(2,6-difluorophenyl)-2-ethyl-5-methyl-5H-pyrimido[1,2-a][1,4]benzodiazepine-3-one]	–	–	–	58.4	1.77	–	–	66%	1.66	2.3 nM	909 nM	15.6 nM	15.6 nM
